This passage reports mutagenic call results from PubChem BioAssay AID1259407 (Chemical Carcinogenesis Research Information System (CCRIS), 2018).

Active and inactive are the calls of the source. How the calls were made is not given here.

The subject of the data set is CCRIS mutagenicity, Ames/micronucleus/aberration tests. Kind of data set: CCRIS mutagenicity studies. The conditions noted are these: Test System: AMES SALMONELLA TYPHIMURIUM

For `O=C1NC(=O)C(c2ccccc2)(c2ccc(O)cc2)N1` (centres undefined), the mutagenic call reads like this: (Strain/Indicator: TA97, Metabolic Activation: NONE, Method: STANDARD PLATE) “inactive; negative”; (Strain/Indicator: TA97, Metabolic Activation: RAT, LIVER, S-9, 3-METHYLCHOLANTHRENE, Method: PREINCUBATION (10, 20 OR 30 MIN)) “inactive; negative”; (Strain/Indicator: TA97, Metabolic Activation: RAT, LIVER, S-9, 3-METHYLCHOLANTHRENE, Method: STANDARD PLATE) “inactive; negative”; (Strain/Indicator: TA97, Metabolic Activation: RAT, LIVER, S-9, AROCLOR 1254, Method: PREINCUBATION (10, 20 OR 30 MIN)) “inactive; negative”; (Strain/Indicator: TA97, Metabolic Activation: RAT, LIVER, S-9, AROCLOR 1254, Method: STANDARD PLATE) “inactive; negative”; (Strain/Indicator: TA97, Metabolic Activation: RAT, LIVER, S-9, PHENOBARBITONE, Method: PREINCUBATION (10, 20 OR 30 MIN)) “inactive; negative”. Also, the mutagenic call was “inactive; negative” (Strain/Indicator: TA97, Metabolic Activation: RAT, LIVER, S-9, PHENOBARBITONE, Method: STANDARD PLATE); “inactive; negative” (Strain/Indicator: TA98, Metabolic Activation: NONE, Method: STANDARD PLATE); “inactive; negative” (Strain/Indicator: TA98, Metabolic Activation: RAT, LIVER, S-9, 3-METHYLCHOLANTHRENE, Method: STANDARD PLATE); “inactive; negative” (Strain/Indicator: TA98, Metabolic Activation: RAT, LIVER, S-9, AROCLOR 1254, Method: STANDARD PLATE); “inactive; negative” (Strain/Indicator: TA98, Metabolic Activation: RAT, LIVER, S-9, PHENOBARBITONE, Method: STANDARD PLATE); “inactive; negative” (Strain/Indicator: TA100, Metabolic Activation: NONE, Method: STANDARD PLATE). Moreover, the mutagenic call by setting is: (Strain/Indicator: TA100, Metabolic Activation: RAT, LIVER, S-9, 3-METHYLCHOLANTHRENE, Method: STANDARD PLATE) “inactive; negative”; (Strain/Indicator: TA100, Metabolic Activation: RAT, LIVER, S-9, AROCLOR 1254, Method: STANDARD PLATE) “inactive; negative”; (Strain/Indicator: TA100, Metabolic Activation: RAT, LIVER, S-9, PHENOBARBITONE, Method: STANDARD PLATE) “inactive; negative”; (Strain/Indicator: TA1530, Metabolic Activation: NONE, Method: STANDARD PLATE) “inactive; negative”; (Strain/Indicator: TA1530, Metabolic Activation: RAT, LIVER, S-9, 3-METHYLCHOLANTHRENE, Method: STANDARD PLATE) “inactive; negative”; (Strain/Indicator: TA1530, Metabolic Activation: RAT, LIVER, S-9, AROCLOR 1254, Method: STANDARD PLATE) “inactive; negative”. Also, the mutagenic call is, setting by setting: (Strain/Indicator: TA1530, Metabolic Activation: RAT, LIVER, S-9, PHENOBARBITONE, Method: STANDARD PLATE) “inactive; negative”; (Strain/Indicator: TA1537, Metabolic Activation: NONE, Method: STANDARD PLATE) “inactive; negative”; (Strain/Indicator: TA1537, Metabolic Activation: RAT, LIVER, S-9, 3-METHYLCHOLANTHRENE, Method: STANDARD PLATE) “inactive; negative”; (Strain/Indicator: TA1537, Metabolic Activation: RAT, LIVER, S-9, AROCLOR 1254, Method: STANDARD PLATE) “inactive; negative”; (Strain/Indicator: TA1537, Metabolic Activation: RAT, LIVER, S-9, PHENOBARBITONE, Method: STANDARD PLATE) “inactive; negative”; (Strain/Indicator: TA1538, Metabolic Activation: NONE, Method: STANDARD PLATE) “inactive; negative”. In addition, the mutagenic call is “inactive; negative” (Strain/Indicator: TA1538, Metabolic Activation: RAT, LIVER, S-9, 3-METHYLCHOLANTHRENE, Method: STANDARD PLATE); “inactive; negative” (Strain/Indicator: TA1538, Metabolic Activation: RAT, LIVER, S-9, AROCLOR 1254, Method: STANDARD PLATE); “inactive; negative” (Strain/Indicator: TA1538, Metabolic Activation: RAT, LIVER, S-9, PHENOBARBITONE, Method: STANDARD PLATE).
As for `CCN(CC(O)c1ccc([N+]#N)c([O-])c1)N=O` (centres undefined), the mutagenic call is “active; positive” (Strain/Indicator: TA98, Metabolic Activation: NONE, Method: PREINCUBATION); “active; positive” (Strain/Indicator: TA98, Metabolic Activation: RAT LIVER S-9, PCB, Method: PREINCUBATION); “active; positive” (Strain/Indicator: TA100, Metabolic Activation: NONE, Method: PREINCUBATION); “active; positive” (Strain/Indicator: TA100, Metabolic Activation: RAT LIVER S-9, PCB, Method: PREINCUBATION).
As for `Cc1ccc2n[nH]nc2c1`, the mutagenic call reads like this: (Strain/Indicator: TA97, Metabolic Activation: NONE) “inactive; negative”; (Strain/Indicator: TA97, Metabolic Activation: RAT, LIVER, S-9, AROCLOR 1254) “inactive; negative”; (Strain/Indicator: TA98, Metabolic Activation: NONE) “inactive; negative”; (Strain/Indicator: TA98, Metabolic Activation: RAT, LIVER, S-9, AROCLOR 1254) “inactive; negative”; (Strain/Indicator: TA100, Metabolic Activation: NONE) “inactive; negative”; (Strain/Indicator: TA100, Metabolic Activation: RAT, LIVER, S-9, AROCLOR 1254) “inactive; negative”. The mutagenic call runs as follows: (Strain/Indicator: TA102, Metabolic Activation: NONE) “inactive; negative”; (Strain/Indicator: TA102, Metabolic Activation: RAT, LIVER, S-9, AROCLOR 1254) “inactive; negative”.
